Assay results as given in PubChem BioAssay (NCI).
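How tested: cells in 96-well plates exposed to compound for 48 hours at five concentrations. At the TGI there is no net growth.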

Assays:
Assay in all cases: NCI anticancer screen, dose series, 48 h
[1] = system: SW-620 colon
[2] = system: SK-MEL-28 melanoma
[3] = system: MALME-3M melanoma
[4] = system: MDA-MB-435
[5] = system: NCI-H226 lung
[6] = system: UACC-257 melanoma
[7] = system: U251 CNS
[8] = system: MCF7 breast
[9] = system: SNB-19 CNS
[10] = system: A498 renal
[11] = system: CCRF-CEM leukemia
[12] = system: SF-295 CNS
[13] = system: MDA-MB-231 breast
[14] = system: DU-145 prostate
[15] = system: TK-10 renal
[16] = system: LOX IMVI melanoma
[17] = system: ACHN renal
[18] = system: OVCAR-3 ovarian
[19] = system: HCC-2998 colon
[20] = system: UACC-62 melanoma
[21] = system: SK-MEL-5 melanoma
[22] = system: PC-3 prostate
[23] = system: CAKI-1 renal
[24] = system: COLO 205 colon
[25] = system: HOP-62 NSCLC
[26] = system: OVCAR-4 ovarian
[27] = system: SNB-75 CNS
[28] = system: SN12C renal
[29] = system: SK-OV-3 ovarian
[30] = system: K-562 leukemia
[31] = system: HS 578T breast
[32] = system: OVCAR-5 ovarian
[33] = system: SF-539 CNS
[34] = system: HCT-15 colon
[35] = system: HCT-116 colon
[36] = system: HL-60(TB) leukemia
[37] = system: KM12 colon
[38] = system: OVCAR-8 ovarian
[39] = system: EKVX NSCLC
[40] = system: UO-31 renal
[41] = system: HT29 colon
[42] = system: NCI-H23 lung
[43] = system: SR leukemia
[44] = system: NCI-H460 lung
[45] = system: RXF 393 renal
[46] = system: NCI/ADR-RES ovarian
[47] = system: 786-0 renal
[48] = system: RPMI-8226 leukemia
[49] = system: SF-268 CNS
[50] = system: M14 melanoma
[51] = system: BT-549 breast
[52] = system: A549 NSCLC
[53] = system: MDA-N
[54] = system: IGROV1 ovarian
[55] = system: MOLT-4 leukemia
[56] = system: SK-MEL-2 melanoma
[57] = system: T-47D breast
[58] = system: HOP-92 NSCLC

SMILES: CC1C(C)(C)C23CC12C1(OCCO1)C3Br (stereo unspecified)
- TGI [1]: > 100 µM
- TGI [2]: > 100 µM
- TGI [3]: > 100 µM
- TGI [4]: > 100 µM
- TGI [5]: > 100 µM
- TGI [6]: > 100 µM
- TGI [7]: > 100 µM
- TGI [8]: > 100 µM
- TGI [9]: > 100 µM
- TGI [10]: > 100 µM
- TGI [11]: > 100 µM
- TGI [12]: > 100 µM
- TGI [13]: > 100 µM
- TGI [14]: > 100 µM
- TGI [15]: > 100 µM
- TGI [16]: > 100 µM
- TGI [17]: > 100 µM
- TGI [18]: > 100 µM
- TGI [19]: > 100 µM
- TGI [20]: > 100 µM
- TGI [21]: > 100 µM
- TGI [22]: > 100 µM
- TGI [23]: > 100 µM
- TGI [24]: > 100 µM
- TGI [25]: > 100 µM
- TGI [26]: > 100 µM
- TGI [27]: > 100 µM
- TGI [28]: > 100 µM
- TGI [29]: > 100 µM
- TGI [30]: > 100 µM
- TGI [31]: > 100 µM
- TGI [32]: > 100 µM
- TGI [33]: > 100 µM
- TGI [34]: > 100 µM
- TGI [35]: > 100 µM
- TGI [36]: > 100 µM
- TGI [37]: > 100 µM
- TGI [38]: > 100 µM
- TGI [39]: > 100 µM
- TGI [40]: > 100 µM
- TGI [41]: > 100 µM
- TGI [42]: > 100 µM
- TGI [43]: > 100 µM
- TGI [44]: > 100 µM
- TGI [45]: > 100 µM
- TGI [46]: > 100 µM
- TGI [47]: > 100 µM
- TGI [48]: > 100 µM
- TGI [49]: > 100 µM
- TGI [50]: > 100 µM
- TGI [51]: > 100 µM
- TGI [52]: > 100 µM
- TGI [53]: > 100 µM
- TGI [54]: > 100 µM
- TGI [55]: > 100 µM

SMILES: Cn1c(-c2ccc(C=O)o2)ccc1-c1ccc(C=O)o1
- TGI [1]: > 100 µM
- TGI [2]: > 100 µM
- TGI [3]: > 100 µM
- TGI [56]: > 100 µM
- TGI [4]: > 100 µM
- TGI [5]: > 100 µM
- TGI [6]: > 100 µM
- TGI [7]: > 100 µM
- TGI [8]: > 100 µM
- TGI [9]: > 100 µM
- TGI [57]: > 100 µM
- TGI [10]: > 100 µM
- TGI [11]: > 100 µM
- TGI [12]: > 100 µM
- TGI [13]: > 100 µM
- TGI [14]: > 100 µM
- TGI [15]: > 100 µM
- TGI [16]: > 100 µM
- TGI [17]: > 100 µM
- TGI [18]: 81.2 µM
- TGI [19]: > 100 µM
- TGI [20]: > 100 µM
- TGI [21]: > 100 µM
- TGI [22]: > 100 µM
- TGI [23]: 36.8 µM
- TGI [24]: > 100 µM
- TGI [25]: > 100 µM
- TGI [26]: > 100 µM
- TGI [27]: > 100 µM
- TGI [28]: > 100 µM
- TGI [29]: > 100 µM
- TGI [30]: > 100 µM
- TGI [32]: > 100 µM
- TGI [33]: 63.7 µM
- TGI [34]: > 100 µM
- TGI [35]: 36.7 µM
- TGI [36]: 46 µM
- TGI [37]: > 100 µM
- TGI [38]: > 100 µM
- TGI [39]: > 100 µM
- TGI [40]: > 100 µM
- TGI [41]: > 100 µM
- TGI [42]: > 100 µM
- TGI [43]: > 100 µM
- TGI [58]: > 100 µM
- TGI [44]: > 100 µM
- TGI [45]: > 100 µM
- TGI [46]: > 100 µM
- TGI [47]: > 100 µM
- TGI [48]: > 100 µM
- TGI [50]: > 100 µM
- TGI [51]: > 100 µM
- TGI [52]: > 100 µM
- TGI [53]: > 100 µM
- TGI [54]: > 100 µM
- TGI [55]: 80.3 µM
